Measured values as given in paper PMC10901353, “Identification of a potent and selective LAPTc inhibitor by RapidFire-Mass Spectrometry, with antichagasic activity” (PLOS Neglected Tropical Diseases, 2024).
“And” between values parts separate entries of the source, which are not always exact repeats. Equal values may be shown once. Read-outs that look alike come from different tables or passages of the source.

How the values were obtained:
[1] = system: intracellular T. cruzi amastigotes; experiment: T. cruzi intracellular assay (high-content imaging, infected Vero cells); assay type: cell-based, Trypanosoma cruzi; parameters: Max Effect (T. cruzi): unit not given here; settings: for EC50 / Emax: Trypanosoma cruzi, Vero; for Emax: read-out: Max Effect (T. cruzi)
Description: T. cruzi parasite, TcI strain Silvio X10/7 subclone A1 [34] was maintained in culture as previously described. Parasites were maintained as amastigotes by passaging on a weekly basis in Vero cells. Culture maintenance infections were carried out at an MOI (multiplicity of infection) of 1.5.
(§1) This assay was performed as described with the only modification that treatment was 96 h instead of 72 h. Briefly, Vero cells were infected overnight with tissue culture derived T. cruzi trypomastigotes in T225 tissue culture flasks (MOI 5). Any remaining free trypomastigotes were washed away with serum free MEM and the infected Vero cells were harvested by trypsinisation. Compounds (250 nL in DMSO) were dispensed using LabCyte ECHO (Beckman Coulter Life Sciences, USA) into each well of Corning black flat bottomed 384-well plates (Corning, USA). […] The infected Vero cells were then plated into the plates containing the compounds, at 4,000 cells per well in MEM media with 1% FCS. After 96 h incubation at 37°C in presence of 5% CO2, the plates were fixed with 4% formaldehyde for 20 min at room temperature and stained with 5 μg/mL Hoechst 33342. The plates were imaged on a Perkin Elmer Operetta high-content imaging system using a 20× objective. Images were analyzed using the Columbus system (Perkin Elmer). The algorithm first identified the Vero nuclei followed by demarcation of the cytoplasm and identification of intracellular amastigotes. This algorithm reported percent infected Vero cell and total number of Vero cells. All potency determinations were carried out in at least three independent replicates and are reported as pEC50 +/- standard deviation. pEC50 = -log(EC50[M]).

Vero cells = experiment: Cytotoxicity against infected Vero host cells in T. cruzi intracellular assay; assay type: cell-based, African green monkey; parameters: Max Effect (Vero): unit not given here; settings: individual replicates
Description: (§2) Briefly, these cells were maintained at 37°C and 5% CO2 in MEM supplemented with 10% FCS, sub-culturing every 2–3 days at a ratio of 1:5 after 5 min treatment with Trypsin-EDTA (Gibco).
as §1, with “After 96 h incubation at 37°C in presence of 5% CO2, the plates were fixed with 4% formaldehyde for 20 min at room temperature and stained with 5 μg/mL Hoechst 33342.” left out

[2] = as above; assay type: cell-based, African green monkey; parameters: Max Effect (Vero): unit not given here; settings: African green monkey, Vero cells infected with T. cruzi; infected Vero host cells, 96 h; read-out: pCC50 (Vero) +/- StDev (converted)
Description: as §2
as §1, with “After 96 h incubation at 37°C in presence of 5% CO2, the plates were fixed with 4% formaldehyde for 20 min at room temperature and stained with 5 μg/mL Hoechst 33342.” left out

[3] = Cytotoxicity assay on human HepG2 cells (resazurin); assay type: cell-based; settings: human, HepG2 cells, 72 h, two independent experiments; read-out: pCC50 (HepG2) (converted)
HepG2 cells = experiment: as above; assay type: cell-based; settings: individual replicates
[4] = target: T1, LAPTc (acidic M17 leucyl-aminopeptidase from T. cruzi) (Trypanosoma cruzi, UniProt V5BWE3); experiment: Dose-response studies for LAPTc inhibition by RapidFire-MS; assay type: biochemical; settings: for Emax: read-out: Maximum Effect; for Hit Confirmation: whether primary screen hit confirmed in potency experiment
T1 sequence (V5BWE3 entry or part of it): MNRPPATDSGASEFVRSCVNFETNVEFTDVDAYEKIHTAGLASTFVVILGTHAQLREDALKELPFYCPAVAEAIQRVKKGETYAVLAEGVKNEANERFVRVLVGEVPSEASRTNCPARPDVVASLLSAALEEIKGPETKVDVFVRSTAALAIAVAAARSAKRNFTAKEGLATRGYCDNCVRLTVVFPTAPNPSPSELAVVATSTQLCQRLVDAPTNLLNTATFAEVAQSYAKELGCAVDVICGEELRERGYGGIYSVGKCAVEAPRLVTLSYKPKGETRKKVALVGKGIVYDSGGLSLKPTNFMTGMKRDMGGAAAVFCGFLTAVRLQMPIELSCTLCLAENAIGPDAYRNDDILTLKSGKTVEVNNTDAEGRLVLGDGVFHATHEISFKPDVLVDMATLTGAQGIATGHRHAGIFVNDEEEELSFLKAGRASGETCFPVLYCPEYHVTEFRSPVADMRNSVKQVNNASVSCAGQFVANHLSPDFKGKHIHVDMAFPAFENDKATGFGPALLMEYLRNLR
Description: (§3) This assay was previously described. The assay was performed in 384-well clear F-bottom polypropylene plates with a final reaction volume of 15 μL. The reaction mixture contained 7.5 μL LAPTc in 50 mM Tris-HCl, pH 7.5, 0.005% NP-40 and 7.5 μL LSTVIVR peptide substrate (Cambridge Research Biochemicals, Billingham, UK) in the same buffer was added to start the reaction. The reaction was performed at room temperature for 40 min and then stopped with 85 μL 1% formic acid containing 0.15 mg/mL STVIVR* internal standard (Cambridge Research Biochemicals, Billingham, UK).
To generate half-maximum inhibitory concentration (IC50) data for LAPTc, 10-point dose-response curves with 100 μM as highest concentration and 1:2 dilution in DMSO (0.195–100 μM range) were prepared in 384 well plates. All other experimental conditions were as described above. All IC50 curve fitting was performed by four-parameter logistic dose-response curve fit using ActivityBase XE (IDBS). At least three replicates were generated for each hit compound.

[5] = target: T1, LAPTc (acidic M17 leucyl-aminopeptidase from T. cruzi); experiment: High-throughput single point screening for LAPTc inhibitors by RapidFire-MS; assay type: biochemical; settings: primary screen, 30 μM, single replicate; read-out: Percent Inhibition
Description: as §3
Single point screening of a library of 3329 compounds was performed in 384-well clear plates (Greiner 781101) at room temperature. Test compounds (45 nL in DMSO) were transferred to assay plates by an ECHO 550 acoustic dispenser (Labcyte). LAPTc was tested at 3 nM with 150 μM (approximately the value of the apparent Michaelis-Menten constant -appKM- [16]) LSTVIVR peptide substrate in a 40 min reaction. Before addition of substrate, LAPTc was preincubated with 45 nL compounds or DMSO for 15 min. Compounds, dissolved in DMSO, were tested at 30 μM. Controls without compound (the same volume of DMSO, 0% inhibitory effect) and without enzyme and compound (100% inhibitory effect) were prepared. The experiment was performed without replicates. The remaining experimental conditions were maintained as previously described. Data were processed and analysed through ActivityBase XE (IDBS). The selection criterion for hits in this single point screen was percent inhibition larger than the mean plus three standard deviations. All primary screening data are available in ChEMBL (see Data Availability statement).

[6] = 96 h, four independent experiments, read-out: pEC50 (T. cruzi) +/- StDev (converted)
[7] = individual replicates, read-out: pEC50 (T. cruzi) (converted)
[8] = Initial hit confirmation, single replicate
[9] = Initial hit confirmation, single replicate, read-out: pIC50 (converted)
[10] = Replicate data generation, individual replicates
[11] = Replicate data generation, individual replicates, read-out: pIC50 (converted)
[12] = average of four independent replicates, read-out: pIC50 +/- StDev (LAPTc) (converted)

| SMILES | EC50 [1, 6] | Emax ([1]; individual replicates) | EC50 [1, 7] | Max Effect (T. cruzi) ([1]; individual replicates) | Max Effect (Vero) (Vero cells) | pEC50 (Vero) (Vero cells) | CC50 at 96 h [2] | CC50 at 72 h [3] | Max Effect (HepG2) (HepG2 cells) | pEC50 (HepG2) (HepG2 cells) | Hill Slope [4, 8] | Emax [4, 8] | IC50 [4, 9] | Hill Slope [4, 10] | Maximum Effect [4, 10] | Emax [4, 10] | IC50 [4, 11] | IC50 [4, 12] | Hit Confirmation [4] | inhibition at 30 µM [5] | other results |
| --- | --- | --- | --- | --- | --- | --- | --- | --- | --- | --- | --- | --- | --- | --- | --- | --- | --- | --- | --- | --- | --- |
| NC(=O)C1Cc2ccccc2CN1C(=O)Cc1cn2ccsc2n1 (centres unmarked) [Compound 28] | > 50.1 µM | 27% | > 50.1 µM | 21 and 20 and 35 | 32 and 37 and 15 and 16 | < 4.3 | > 50.1 µM | > 100 µM | 2.59 and 4.33 | < 4.0 | 0.9 | 87% | 10 µM | 1.5 and 1.4 | 72% and 74% | 73% | 39.8 µM and 50.1 µM | 30.2 µM | confirmed | 27% |  |
| O=C(CN1NS(=O)(=O)c2ccccc2C1=O)NCCc1ccccc1 [Compound 6] | > 50.1 µM | 11% | > 50.1 µM | 20 and 14 and 16 | 8.54 and 13 and 11 and 18 | < 4.3 | > 50.1 µM | > 100 µM | 3.48 and 3.47 | < 4.0 | 0.543 | 68% | 20 µM | 0.9 and 0.54 and 0.7 | 72% and 73% | 76% | 7.94 µM and 12.6 µM and 5.01 µM | 9.77 µM | confirmed | 56% |  |
| COc1ccc(CC(=O)Nc2nc(-c3ccccn3)cs2)c(OC)c1 [Compound 12] | 7.08 µM | 98% | 7.94 µM | 100 and 94 | 46 and 49 and 51 |  | 1 µM | > 100 µM | 11 and 10 | < 4.0 | 2.1 | 84% | 20 µM | 1.0 and 0.9 and 1.3 | 67% and 73% | 68% | 31.6 µM and 20 µM | 25.1 µM | confirmed | 42% | pEC50 (T. cruzi) ([1]; individual replicates): 5.2 |
| CCCS(=O)(=O)c1ccc(NS(=O)(=O)c2sc3ccc(Cl)cc3c2C)cc1 [Compound 24] | 14.8 µM |  |  | 100 and 75 and 105 and 84 | 92 and 90 and 88 and 91 | 4.9 and 5.0 | 11.5 µM | > 100 µM | -2 and -0.697 | < 4.0 | 2.4 | 96% | 31.6 µM | 2.4 and 2.3 and 2.6 |  | 99% | 12.6 µM and 15.8 µM | 17.8 µM | confirmed | 29% | pEC50 (T. cruzi) ([1]; individual replicates): 4.8 and 4.7 and 5.1 |
| Cc1ccc2nc(-c3ccc(NS(=O)(=O)c4cc(C(=O)O)c(Cl)cc4Cl)cc3)sc2c1 [Compound 5] | > 50.1 µM | 44% | > 50.1 µM | 45 | 71 and 82 and 77 | 4.4 and 4.6 and 4.5 | 33.1 µM | > 100 µM | 4.7 and 1.78 | < 4.0 | 1.2 | 96% | 12.6 µM | 4.3 and 4.2 and 3.9 | 98% | 99% | 7.94 µM | 8.91 µM | confirmed | 58% |  |
| Cn1ccnc1C(NS(=O)(=O)c1ccc(C#N)cc1)c1cccc(F)c1 (centres unmarked) [Compound 8] | > 50.1 µM | 29% | > 50.1 µM | 31 and 26 and 25 | 18 and 29 and 34 and 32 | < 4.3 | > 50.1 µM | > 100 µM | 6.44 and 10 | < 4.0 | 1.0 | 89% | 12.6 µM | 1.5 and 1.6 and 1.3 | 82% | 79% | 12.6 µM |  | confirmed | 49% |  |
| CC1c2ccsc2CCN1C(=O)c1ccc(-n2cnnn2)cc1 (centres unmarked) [Compound 2] | > 50.1 µM |  | > 50.1 µM | 42 and 15 and 37 and 27 | 26 and 27 and 21 and 22 | < 4.3 | > 50.1 µM | > 100 µM | 4 and 3 | < 4.0 | 1.7 | 77% | 31.6 µM | 1.1 and 1.2 | 86% | 87% | 15.8 µM | 19.5 µM | confirmed | 62% |  |
| Nc1[nH]cnc1-c1nc(-c2ccccc2)cs1 [Compound 7] | 38.9 µM |  | 31.6 µM | 59 and 37 and 30 | 78 and 73 | 5.1 and 4.8 and 5.2 | 10.2 µM | > 100 µM | 3 and 4 | < 4.0 | 1.2 | 90% | 2 µM | 1.7 and 1.5 | 50% and 61% | 53% |  | 3.89 µM | confirmed | 56% | pEC50 (T. cruzi) ([1]; individual replicates): < 4.3 and 4.3 |
